Data from paper PMC10223454, “Functional Characterization of a New Degradation Peptide BmTX4-P1 from Traditional Chinese Scorpion Medicinal Material” (Toxins, 2023).
Peptide text beside a SMILES is read from it.

Assays:
hKv1.2 channel = target: T1, hKv1.2 channel (Homo sapiens, UniProt P16389); assay: whole-cell patch clamp, hKv1.2 channel currents; assay type: cell-based; conditions: for IC50: peak tail current, Hill equation fit
T1 construct: expressed in transfected cells
Text: (§1) The source of potassium channel plasmids was described in detail in previous articles. The cDNA encoding hKv1.1 channel, hKv1.3 channel, and rKv4.3 channel were subcloned into the vector of pCDNA3.1(+). The cDNA encoding hKv1.2 channel, hKv1.6 channel, hKv3.2 channel, hERG channel, and mKv4.1 channel were subcloned into the vector of pIRES2-EGFP. The cDNA encoding rKv4.2 was subcloned into the vector of pEGFP-N1.
(§2) DMEM (Gibco, Pittsburgh, PA, USA) with 10% fetal bovine serum and 1% penicillin/streptomycin was applied to culture HEK293T cells in an incubator with 5% CO2 at 37 °C. According to the manufacturer’s instructions, ExFect Transfection Reagent (Vazyme, Nanjing, China) was used to co-transfect the plasmids of pEGFP-N1 and potassium channels into HEK293T cells. Fluorescence-positive cells were selected for electrophysiological experiments after transfection for 12 h to 24 h.
(§3) Whole-cell channel currents were measured and recorded by an EPC-10 patch-clamp amplifier controlled by PatchMaster (HEKA Elektronik, Lambrecht, Germany). The internal patch pipette solution and bath solution were prepared according to the protocol in previously published references. Bath solution with 0.01% BSA (Gibco, Pittsburgh, PA, USA) was used to dissolve peptides for electrophysiological testing. The external recording bath solution was exchanged by the MPS-2 multichannel microperfusion system (INBIO Inc., Wuhan, China). The currents of different potassium channels were generated and recorded following the respective protocols according to previously published references. The results of the electrophysiological experiment are presented as the mean ± SE, and more than three cells from each sample were examined (n ≥ 3).
(§4) The software of Clampfit (Molecular Devices, Sunnyvale, CA, USA) and Sigmaplot (IBM SPSS, Chicago, IL, USA) were applied to analyze the electrophysiological data. In order to obtain IC50 values, the concentrations of peptides and currents of potassium channels were used to fit the modified Hill equation for dose–response relationships: Ipeptide/Icontrol = 1/[1 + Cpeptide/IC50], in which Ipeptide and Icontrol represent the peak tail current of potassium channels in the presence and absence of peptide, Cpeptide represents the concentration of peptides and IC50 represents the half-maximum inhibition concentration. The results are presented as the mean ± SE.

hKv1.3 channel = target: T2, hKv1.3 channel (Homo sapiens, UniProt P22001); assay: whole-cell patch clamp, hKv1.3 channel currents; assay type: cell-based; conditions: for IC50: peak tail current, Hill equation fit
T2 construct: expressed in transfected cells
Text: as §1, §2, §3, §4

hKv1.1 channel = assay: whole-cell patch clamp, hKv1.1 channel currents; assay type: cell-based, human; conditions: 1 µM, n ≥ 3
Text: as §1, §2
(§5) Whole-cell channel currents were measured and recorded by an EPC-10 patch-clamp amplifier controlled by PatchMaster (HEKA Elektronik, Lambrecht, Germany). The internal patch pipette solution and bath solution were prepared according to the protocol in previously published references. […] The currents of different potassium channels were generated and recorded following the respective protocols according to previously published references. […]

hKv1.6 channel = assay: whole-cell patch clamp, hKv1.6 channel currents; assay type: cell-based, human; conditions: 1 µM, transiently transfected HEK293 cells, mean ± SE, n ≥ 3
Text: as §1, §2, §5

rKv4.2 channel = assay: whole-cell patch clamp, rKv4.2 channel currents; assay type: cell-based, rat; conditions: 1 µM, transiently transfected HEK293 cells, mean ± SE, n ≥ 3
Text: as §1, §2, §5

hERG channel = assay: in vitro; assay type: cell-based; conditions: human, whole-cell patch clamp, transiently transfected HEK293 cells, mean ± SE, n ≥ 3, read-out: inhibition of hERG channel currents
Text: as §1, §2, §5

mKv4.3 channel = assay: whole-cell patch clamp, mKv4.3 channel currents; assay type: cell-based, mouse; conditions: 1 µM, transiently transfected HEK293 cells, mean ± SE, n ≥ 3
rKv4.1 channel = assay: whole-cell patch clamp, rKv4.1 channel currents; assay type: cell-based, rat; conditions: 1 µM, transiently transfected HEK293 cells, mean ± SE, n ≥ 3
hKv3.2 channel = assay: whole-cell patch clamp, hKv3.2 channel currents; assay type: cell-based, human; conditions: 1 µM, transiently transfected HEK293 cells, mean ± SE, n ≥ 3
Text: as §1, §2, §5

[1] = 1 µM, transiently transfected HEK293 cells, mean ± SE, n ≥ 3

T1 sequence (P16389 whole entry): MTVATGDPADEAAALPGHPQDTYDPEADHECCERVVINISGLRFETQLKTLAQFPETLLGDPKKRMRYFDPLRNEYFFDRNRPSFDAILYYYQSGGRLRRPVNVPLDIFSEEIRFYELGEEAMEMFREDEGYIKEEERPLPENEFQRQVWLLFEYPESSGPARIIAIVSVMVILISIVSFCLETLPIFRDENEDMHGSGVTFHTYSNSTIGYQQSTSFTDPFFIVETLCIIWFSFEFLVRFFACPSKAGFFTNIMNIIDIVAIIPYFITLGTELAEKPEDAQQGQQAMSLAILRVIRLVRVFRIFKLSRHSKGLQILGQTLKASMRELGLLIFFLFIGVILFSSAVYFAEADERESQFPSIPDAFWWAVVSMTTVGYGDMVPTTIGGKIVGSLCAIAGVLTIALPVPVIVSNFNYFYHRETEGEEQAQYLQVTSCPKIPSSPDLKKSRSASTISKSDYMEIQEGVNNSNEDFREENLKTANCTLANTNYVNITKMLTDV
T2 sequence (P22001 whole entry): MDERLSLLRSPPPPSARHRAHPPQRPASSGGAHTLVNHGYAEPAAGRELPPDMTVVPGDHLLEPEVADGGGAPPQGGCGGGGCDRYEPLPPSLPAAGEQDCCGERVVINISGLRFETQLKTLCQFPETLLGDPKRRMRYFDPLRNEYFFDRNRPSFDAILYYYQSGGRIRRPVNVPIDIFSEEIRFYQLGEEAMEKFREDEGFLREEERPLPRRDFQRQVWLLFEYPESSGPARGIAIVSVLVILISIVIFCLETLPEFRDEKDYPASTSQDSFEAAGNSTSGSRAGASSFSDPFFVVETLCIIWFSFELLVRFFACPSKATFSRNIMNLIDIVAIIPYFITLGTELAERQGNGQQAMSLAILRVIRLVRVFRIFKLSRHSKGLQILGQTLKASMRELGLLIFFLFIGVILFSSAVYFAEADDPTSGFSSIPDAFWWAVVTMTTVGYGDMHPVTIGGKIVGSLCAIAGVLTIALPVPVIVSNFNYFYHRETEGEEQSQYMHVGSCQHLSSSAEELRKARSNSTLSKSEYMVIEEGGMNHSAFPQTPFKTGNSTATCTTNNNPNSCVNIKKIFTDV

Compound	inhibition of hKv1.2 channel current (in words) (hKv1.2 channel; 1 µM)	IC50 (hKv1.2 channel; mean ± SE, n ≥ 3)	inhibition of hKv1.3 channel current (in words) (hKv1.3 channel; 1 µM)	IC50 (hKv1.3 channel; mean ± SE, n ≥ 3)	effect on hKv1.1 channel current (in words) (hKv1.1 channel)	inhibition of hKv1.6 channel currents (hKv1.6 channel)	inhibition at 0.008 µM (hKv1.2 channel; 8 nM, mean ± SE, n ≥ 3, read-out: inhibition rate of hKv1.2 channel current)	inhibition at 0.04 µM (hKv1.2 channel; 40 nM, mean ± SE, n ≥ 3, read-out: inhibition rate of hKv1.2 channel current)	inhibition at 0.2 µM (hKv1.2 channel; 200 nM, mean ± SE, n ≥ 3, read-out: inhibition rate of hKv1.2 channel current)	inhibition at 1 µM (hKv1.2 channel; [1])	inhibition of rKv4.2 channel currents (rKv4.2 channel)	inhibition at 1 µM (hERG channel)	inhibition at 0.008 µM (hKv1.3 channel; 8 nM, mean ± SE, n ≥ 3, read-out: inhibition rate of hKv1.3 channel current)	inhibition at 0.04 µM (hKv1.3 channel; 40 nM, mean ± SE, n ≥ 3, read-out: inhibition rate of hKv1.3 channel current)	inhibition at 0.2 µM (hKv1.3 channel; 200 nM, mean ± SE, n ≥ 3, read-out: inhibition rate of hKv1.3 channel current)	inhibition at 1 µM (hKv1.3 channel; [1])	inhibition of mKv4.3 channel currents (mKv4.3 channel)	inhibition of hKv1.1 channel currents (hKv1.1 channel; transiently transfected HEK293 cells, mean ± SE)	inhibition of rKv4.1 channel currents (rKv4.1 channel)	inhibition of hKv3.2 channel currents (hKv3.2 channel)
CSCC[C@@H]1NC(=O)[C@@H]2CSSC[C@H](NC(=O)[C@@H](N)CCCCN)C(=O)N[C@@H]([C@@H](C)O)C(=O)N[C@@H](C)C(=O)N[C@@H](CO)C(=O)N[C@@H](CCCCN)C(=O)N[C@@H](CCC(N)=O)C(=O)N[C@H]3CSSC[C@H](NC(=O)[C@H](CCCCN)NC(=O)CNC(=O)[C@H](CC(N)=O)NC1=O)C(=O)N[C@@H](CCCNC(=N)N)C(=O)N[C@H](C(=O)N[C@@H](Cc1ccc(O)cc1)C(=O)O)CSSC[C@H](NC(=O)[C@H](C(C)C)NC(=O)[C@@H]1CCCN1C(=O)[C@H](Cc1c[nH]c4ccccc14)NC3=O)C(=O)N[C@@H](CCCCN)C(=O)N[C@@H](CCC(N)=O)C(=O)N[C@@H](CCSC)C(=O)N[C@@H](Cc1ccccc1)C(=O)NCC(=O)N[C@@H](CCCCN)C(=O)N1CCC[C@H]1C(=O)N[C@@H](CC(N)=O)C(=O)NCC(=O)N[C@@H](CCCCN)C(=O)N2 [rBmTX4-P1] (HELM PEPTIDE1{K.C.T.A.S.K.Q.C.W.P.V.C.K.Q.M.F.G.K.P.N.G.K.C.M.N.G.K.C.R.C.Y}$PEPTIDE1,PEPTIDE1,2:R3-23:R3|PEPTIDE1,PEPTIDE1,8:R3-28:R3|PEPTIDE1,PEPTIDE1,12:R3-30:R3$$$V2.0; C-terminus assumed; bridges inferred)	inhibited the currents of the hKv1.2 and hKv1.3 channels with high affinities	45.7 ± 9.2 nM	inhibited the currents of the hKv1.2 and hKv1.3 channels with high affinities	247 ± 47.9 nM	hardly inhibited the hKv1.1 channel current	–	–	–	–	–	–	–	–	–	–	–	–	–	–	–
CSCC[C@@H]1NC(=O)[C@@H]2CSSC[C@H](NC(=O)[C@@H](N)CCCCN)C(=O)N[C@@H]([C@@H](C)O)C(=O)N[C@@H](C)C(=O)N[C@@H](CO)C(=O)N[C@@H](CCCCN)C(=O)N[C@@H](CCC(N)=O)C(=O)N[C@H]3CSSC[C@H](NC(=O)[C@H](CCCCN)NC(=O)CNC(=O)[C@H](CC(N)=O)NC1=O)C(=O)N[C@@H](CCCNC(=N)N)C(=O)N[C@H](C(=O)N[C@@H](Cc1ccc(O)cc1)C(=O)O)CSSC[C@H](NC(=O)[C@H](C(C)C)NC(=O)[C@@H]1CCCN1C(=O)[C@H](Cc1c[nH]c4ccccc14)NC3=O)C(=O)N[C@@H](CCCCN)C(=O)N[C@@H](CCC(N)=O)C(=O)N[C@@H](CCSC)C(=O)N[C@@H](Cc1ccccc1)C(=O)NCC(=O)N[C@@H](CCCCN)C(=O)N1CCC[C@H]1C(=O)N[C@@H](CC(N)=O)C(=O)NCC(=O)N[C@@H](CCCCN)C(=O)N2 [sBmTX4-P1] (HELM PEPTIDE1{K.C.T.A.S.K.Q.C.W.P.V.C.K.Q.M.F.G.K.P.N.G.K.C.M.N.G.K.C.R.C.Y}$PEPTIDE1,PEPTIDE1,2:R3-23:R3|PEPTIDE1,PEPTIDE1,8:R3-28:R3|PEPTIDE1,PEPTIDE1,12:R3-30:R3$$$V2.0; N-terminus and C-terminus assumed; bridges inferred)	–	74.7 ± 7 nM	–	124 ± 26.7 nM	–	18.3 ± 4.3%	13.5 ± 1.6%	40.2 ± 3.7%	66 ± 6.3%	88.4 ± 2%	6.9 ± 4.6%	35.7 ± 2.1%	13.6 ± 3.7%	32.6 ± 5.3%	60.7 ± 2.9%	73.1 ± 2.8%	6.8 ± 2.8%	5.9 ± 1.5%	7.0 ± 1.8%	5.3 ± 3.1%
